In ChEMBL document CHEMBL4393707, “Synthesis and evaluation of new quinazolin-4(3H)-one derivatives as potent antibacterial agents against multidrug resistant Staphylococcus aureus and Mycobacterium tuberculosis” (Eur J Med Chem, 2019):
Converted amounts (≈) assume the structure as drawn.

Experiments:
Type in all cases: functional
[1] = tested on: Mycobacterium tuberculosis; experiment: Antitubercular activity against Mycobacterium tuberculosis H37Rv after 7 days by resazurin dye based assay; details: 168 h
[2] = tested on: Acinetobacter baumannii; experiment: Antibacterial activity against Acinetobacter baumannii BAA1605 incubated for 16 to 18 hrs by broth microdilution assay
[3] = tested on: Klebsiella pneumoniae; experiment: Antibacterial activity against Klebsiella pneumoniae ATCC BAA-1705 incubated for 16 to 18 hrs by broth microdilution assay
[4] = tested on: Pseudomonas aeruginosa; experiment: Antibacterial activity against Pseudomonas aeruginosa ATCC 27853 incubated for 16 to 18 hrs by broth microdilution assay
[5] = tested on: Staphylococcus aureus; experiment: Antibacterial activity against Staphylococcus aureus ATCC 29213 incubated for 16 to 18 hrs by broth microdilution assay
[6] = tested on: Escherichia coli; experiment: Antibacterial activity against Escherichia coli ATCC 25922 incubated for 16 to 18 hrs by broth microdilution assay

Compound | MIC [1] [µg/mL] | MIC [2] [µg/mL] | MIC [3] [µg/mL] | MIC [4] [µg/mL] | MIC [5] [µg/mL] | MIC [6] [µg/mL]
N#Cc1ccc(/C=C/c2nc3cc(-c4ccccc4)ccc3c(=O)n2-c2cccc(Cl)c2)cc1 | > 64 | > 64 | > 64 | > 64 | > 64 | > 64
N#Cc1ccc(/C=C/c2nc3ccccc3c(=O)n2Cc2ccc(Cl)c(Cl)c2)cc1 | > 64 | > 64 | > 64 | > 64 | > 64 | > 64
CO[C@H]1/C=C/O[C@@]2(C)Oc3c(C)c(O)c4c(O)c(c(/C=N/N5CCN(C)CC5)c(O)c4c3C2=O)NC(=O)/C(C)=C\C=C\[C@H](C)[C@H](O)[C@@H](C)[C@@H](O)[C@@H](C)[C@H](OC(C)=O)[C@@H]1C [RIFAMPIN] | 0.03 (≈ 0.0365 µM) | – | – | – | 0.015 (≈ 0.0182 µM) | –
COC(=O)Cn1c(/C=C/c2ccc(C#N)cc2)nc2ccccc2c1=O | > 64 | > 64 | > 64 | > 64 | > 64 | > 64
N#Cc1ccc(/C=C/c2nc3ccccc3c(=O)n2-c2cccc3ccccc23)cc1 | > 64 | > 64 | > 64 | > 64 | > 64 | > 64
Cc1nc2cc(-n3cc(-c4ccccc4)nn3)ccc2c(=O)n1-c1ccccc1 | > 64 | > 64 | > 64 | > 64 | > 64 | > 64
N#Cc1ccc(/C=C/c2nc3ccccc3c(=O)n2-c2ccc(O)cc2C(=O)O)cc1 | > 64 | > 64 | > 64 | > 64 | > 64 | > 64
COc1ccc(-c2cn(-c3ccc4c(=O)n(-c5ccccc5)c(C)nc4c3)nn2)cc1 | 64 (≈ 156 µM) | > 64 | > 64 | > 64 | > 64 | > 64
Cc1nc2ccc(-c3ccc(F)cc3)cc2c(=O)n1-c1cccc(Cl)c1 | > 64 | > 64 | > 64 | > 64 | > 64 | > 64
CC(C)(C)c1ccc(-n2c(/C=C/c3ccc(C#N)cc3)nc3ccccc3c2=O)cc1 | > 64 | > 64 | > 64 | > 64 | > 64 | > 64
CC(C)(C)c1ccc(-n2c(/C=C/c3ccc(C#N)cc3)nc3ncccc3c2=O)cc1 | > 64 | > 64 | > 64 | > 64 | > 64 | > 64
Cc1nc2cc(-n3cc(-c4ccc(Br)cc4)nn3)ccc2c(=O)n1-c1ccccc1 | 64 (≈ 140 µM) | > 64 | > 64 | > 64 | 64 (≈ 140 µM) | > 64
GENTAMICIN | – | – | – | – | 0.25 | –
Cc1nc2ccc(OCc3cn(Cc4ccc(Br)cc4)nn3)cc2c(=O)n1-c1ccccc1 | > 64 | > 64 | > 64 | > 64 | 64 (≈ 127 µM) | > 64
N#Cc1ccc(/C=C/c2nc3cc(-n4cc(-c5ccccc5)nn4)ccc3c(=O)n2-c2ccccc2)cc1 | > 64 | > 64 | > 64 | > 64 | > 64 | > 64
N#Cc1ccc(/C=C/c2nc3ccccc3c(=O)n2-c2cccnc2)cc1 | > 64 | > 64 | > 64 | > 64 | 64 (≈ 183 µM) | > 64
Cc1nc2cc(-n3cc(COc4ccc5nc(C)n(-c6ccccc6)c(=O)c5c4)nn3)ccc2c(=O)n1-c1ccccc1 | > 64 | > 64 | > 64 | > 64 | > 64 | > 64
N#Cc1ccc(/C=C/c2nc3ccc(OCc4cn(-c5ccc(F)c(Cl)c5)nn4)cc3c(=O)n2Cc2ccccc2)cc1 | > 64 | > 64 | > 64 | > 64 | > 64 | > 64
CCC(C)(C)c1ccc(OCc2cn(-c3ccc4c(=O)n(-c5cccc(Cl)c5)c(C)nc4c3)nn2)cc1 | > 64 | > 64 | > 64 | > 64 | > 64 | > 64
Cc1cccc(-n2c(/C=C/c3ccc(C#N)cc3)nc3ncccc3c2=O)c1C | > 64 | > 64 | > 64 | > 64 | > 64 | > 64
N#Cc1ccc(/C=C/c2nc3ccccc3c(=O)n2Nc2ccc(C(F)(F)F)cc2)cc1 | > 64 | > 64 | > 64 | > 64 | > 64 | > 64
N#Cc1ccc(/C=C/c2nc3ncccc3c(=O)n2-c2cccc(C#N)c2)cc1 | > 64 | > 64 | > 64 | > 64 | > 64 | > 64
